Read-outs that look alike come from different tables or passages of the source. Numbered stars: 1 amine (or outer) side, 2 acyl side, 3 side chain; on linkers, the order of the positions; unused ones are H or OH. Bridge positions count the residues as written; N and C are the ends. Square brackets hold non-standard residues; d marks the D form. Peptide text beside a SMILES is read from it. X2 = O=C(O)CCCCCCCCCCCCCCCCCCC(=O)N[C@@H](CCCCNC(=O)CCOCCOCCNC(=O)CCOCCOCCNC(=O)CCC(=O)N(CCNC(=O)C[*:1])CCNC(=O)C[*:2])C(=O)O; X1 = O=C(O)CCCCCCCCCCCCCCCCC(=O)N[C@@H](CCCCNC(=O)CCOCCOCCNC(=O)CCOCCOCCNC(=O)CCC(=O)N(CCNC(=O)C[*:1])CCNC(=O)C[*:2])C(=O)O; Aib = CC(C)(N)C(=O)O
Columns and labels:
human GIPR = target: T1, human GIPR (Homo sapiens, UniProt P48546); assay: In vitro receptor activation reporter assay (CRE-Luc), HEK293-GIPR-CRE; assay type: cell-based; conditions: read-out: EC50 [nM] GIPR
T1 construct: expressed in transfected cells
T1 sequence (P48546 22-466): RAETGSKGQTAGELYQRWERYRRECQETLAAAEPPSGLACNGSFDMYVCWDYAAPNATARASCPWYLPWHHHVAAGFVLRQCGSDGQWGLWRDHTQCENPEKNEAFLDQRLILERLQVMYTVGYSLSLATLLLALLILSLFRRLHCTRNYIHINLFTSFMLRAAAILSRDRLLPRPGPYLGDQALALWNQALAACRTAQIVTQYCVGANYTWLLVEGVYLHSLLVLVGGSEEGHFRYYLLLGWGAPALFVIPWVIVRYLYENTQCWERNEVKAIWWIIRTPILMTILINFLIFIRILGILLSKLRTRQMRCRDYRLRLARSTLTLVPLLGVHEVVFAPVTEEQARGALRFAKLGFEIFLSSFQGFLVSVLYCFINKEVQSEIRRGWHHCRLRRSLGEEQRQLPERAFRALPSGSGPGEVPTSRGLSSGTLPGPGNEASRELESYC
Source text: HEK293 cells were infected with lentivirus encoding firefly luciferase gene under the control of cAMP responsive element (CRE) promoter (Qiagen, The Netherlands) and then were selected using 1 g mL^−1 puromycin (Life Technologies, Carlsbad) for 1 week. The surviving cells (referred to as CRE-HEK293) were expanded and then transfected with a G418 selective mammalian expression plasmid encoding human GLP-1R or GIPR. In brief, GLP-1R or GIPR plasmid was transfected into CRE-HEK293 cells using Lipofectamine 2000 and selected with 400 g mL^−1 Geneticin (Life Technologies, Carlsbad, CA). Single colony stable cell line overexpressing CRE-luciferase and GLP-1R or GIPR (HEK293-GLP-1R-CRE or HEK293-GIPR-CRE) was then established for in vitro activity assay.
(§1) The EC50 of each peptide was determined using GraphPad Prism 6 software (GraphPad, San Diego, CA).

human GLP-1R = target: T2, human GLP-1R (Homo sapiens, UniProt P43220); assay: In vitro receptor activation reporter assay (CRE-Luc), HEK293-GLP-1R-CRE; assay type: cell-based
T2 construct: expressed in transfected cells
T2 sequence (P43220 24-463): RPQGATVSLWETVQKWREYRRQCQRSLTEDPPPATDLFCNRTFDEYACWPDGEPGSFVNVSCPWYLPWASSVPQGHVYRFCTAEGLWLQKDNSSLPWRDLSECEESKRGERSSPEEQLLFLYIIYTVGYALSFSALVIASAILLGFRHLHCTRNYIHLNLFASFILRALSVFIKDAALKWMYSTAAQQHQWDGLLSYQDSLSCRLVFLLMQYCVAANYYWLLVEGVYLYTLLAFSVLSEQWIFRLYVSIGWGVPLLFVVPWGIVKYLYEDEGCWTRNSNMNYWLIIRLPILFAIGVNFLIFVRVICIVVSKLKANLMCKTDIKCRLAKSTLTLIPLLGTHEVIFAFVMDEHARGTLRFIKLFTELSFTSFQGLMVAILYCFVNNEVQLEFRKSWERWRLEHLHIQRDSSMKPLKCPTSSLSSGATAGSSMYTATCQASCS
Procedure: as §1
HEK293 cells were infected with lentivirus encoding firefly luciferase gene under the control of cAMP responsive element (CRE) promoter (Qiagen, The Netherlands) and then were selected using 1 g/mL puromycin (Life Technologies, Carlsbad) for 1 week. The surviving cells (referred to as CRE-HEK293) were expanded and then transfected with a G418 selective mammalian expression plasmid encoding human GLP-1R. In brief, GLP-1R plasmid was transfected into CRE-HEK293 cells using Lipofectamine 2000 and selected with 400 g/mL Geneticin (Life Technologies, Carlsbad, CA). Single colony stable cell line overexpressing CRE-luciferase and GLP1R was then established for in vitro activity assay.

[1] = Table 8, read-out: EC50 [nM] GLP1R

Compound	EC50 (human GIPR; Table 8) [nM]	EC50 (human GLP-1R; [1]) [nM]	EC50 (human GIPR; Table 9) [nM]	also measured
CC[C@H](C)[C@H](NC(=O)[C@H](CC(C)C)NC(=O)[C@H](Cc1c[nH]c2ccccc12)NC(=O)[C@H](CC(N)=O)NC(=O)[C@@H](NC(=O)[C@H](Cc1ccccc1)NC(=O)[C@@H]1CSCC(=O)NCCN(C(=O)CCC(=O)NCCOCCOCCC(=O)NCCOCCOCCC(=O)NCCCC[C@H](NC(=O)CCCCCCCCCCCCCCCCC(=O)O)C(=O)O)CCNC(=O)CSC[C@H](NC(=O)[C@H](Cc2ccc(O)cc2)NC(=O)[C@@H](NC(=O)[C@H](CO)NC(=O)[C@@H](NC(=O)[C@H](CC(=O)O)NC(=O)[C@H](CO)NC(=O)[C@@H](NC(=O)[C@H](Cc2ccccc2)NC(=O)[C@@H](NC(=O)CNC(=O)[C@H](CCC(=O)O)NC(=O)C(C)(C)NC(=O)[C@@H](N)Cc2ccc(O)cc2)[C@@H](C)O)[C@@H](C)CC)C(C)C)[C@@H](C)CC)C(=O)N[C@@H](CC(=O)O)C(=O)N[C@@H](CCCCN)C(=O)N[C@@H](CCC(N)=O)C(=O)N[C@@H](C)C(=O)N[C@@H](C)C(=O)NC(C)(C)C(=O)N1)C(C)C)C(=O)N[C@@H](C)C(=O)NCC(=O)NCC(=O)N1CCC[C@H]1C(=O)N[C@@H](CO)C(=O)N[C@@H](CO)C(=O)NCC(=O)N[C@@H](C)C(=O)N1CCC[C@H]1C(=O)N1CCC[C@H]1C(=O)N1CCC[C@H]1C(=O)N[C@@H](CO)C(N)=O [7I, 10V, 27I, C(14-21) - L5A, YAibEGT-FISDV-SIYXD-KQAAAib-XFVNW-LIAGG-PSSGA-PPPS-NH2 (where each X is C)] (H-Y[Aib]EGTFISDVSIYCDKQAA[Aib]CFVNWLIAGGPSSGAPPPS-NH2; linker 14-21 via X1)	12.5	83.9	–	–
CC[C@H](C)[C@H](NC(=O)[C@H](CO)NC(=O)[C@H](Cc1ccc(O)cc1)NC(=O)[C@H](CC(=O)O)NC(=O)[C@H](CO)NC(=O)[C@@H](NC(=O)[C@H](Cc1ccccc1)NC(=O)[C@@H](NC(=O)CNC(=O)[C@H](CCC(=O)O)NC(=O)C(C)(C)NC(=O)[C@@H](N)Cc1ccc(O)cc1)[C@@H](C)O)[C@@H](C)O)C(=O)N[C@@H](Cc1ccc(O)cc1)C(=O)N[C@H]1CCCCNC(=O)CN(C(=O)CCNC(=O)CCOCCOCCNC(=O)CCOCCOCCNC(=O)CC[C@H](NC(=O)CCCCCCCCCCCCCCCCC(=O)O)C(=O)O)CC(=O)NCCCC[C@@H](C(=O)N[C@@H](Cc2ccccc2)C(=O)N[C@H](C(=O)N[C@@H](CC(N)=O)C(=O)N[C@@H](Cc2c[nH]c3ccccc23)C(=O)N[C@@H](CC(C)C)C(=O)N[C@@H](CC(C)C)C(=O)N[C@@H](C)C(=O)NCC(=O)NCC(=O)N2CCC[C@H]2C(=O)N[C@@H](CO)C(=O)N[C@@H](CO)C(=O)NCC(=O)N[C@@H](C)C(=O)N2CCC[C@H]2C(=O)N2CCC[C@H]2C(=O)N2CCC[C@H]2C(=O)N[C@@H](CO)C(N)=O)C(C)C)NC(=O)C(C)(C)NC(=O)[C@H](C)NC(=O)[C@H](C)NC(=O)[C@H](CCC(N)=O)NC(=O)[C@H](CCCCN)NC(=O)[C@H](CC(=O)O)NC1=O [mCLZ715, YAibEGT-FTSDY-SIYXD-KQAAAib-XFVNW-LLAGG-PSSGA-PPPS-NH2 (where each X is K)]	–	–	–	EC50 (human GLP-1R; Table 7, read-out: EC50 [nM] GLP1R): 0.02 nM
CC[C@H](C)[C@H](NC(=O)[C@H](CC(C)C)NC(=O)[C@H](Cc1c[nH]c2ccccc12)NC(=O)[C@@H]1CSCC(=O)NCCN(C(=O)CCC(=O)NCCOCCOCCC(=O)NCCOCCOCCC(=O)NCCCC[C@H](NC(=O)CCCCCCCCCCCCCCCCCCC(=O)O)C(=O)O)CCNC(=O)CSC[C@H](NC(=O)[C@H](CCCCN)NC(=O)[C@H](CC(=O)O)NC(=O)[C@H](CC(C)C)NC(=O)[C@H](Cc2ccc(O)cc2)NC(=O)[C@@H](NC(=O)[C@H](CO)NC(=O)[C@H](Cc2ccc(O)cc2)NC(=O)[C@H](CC(=O)O)NC(=O)[C@H](CO)NC(=O)[C@@H](NC(=O)[C@H](Cc2ccc(O)cc2)NC(=O)[C@@H](NC(=O)CNC(=O)[C@H](CCC(=O)O)NC(=O)C(C)(C)NC(=O)[C@@H](N)Cc2ccc(O)cc2)[C@@H](C)O)[C@@H](C)O)[C@@H](C)CC)C(=O)N[C@@H](C)C(=O)N[C@@H](C)C(=O)NC(C)(C)C(=O)N[C@@H](CCC(=O)O)C(=O)N[C@@H](Cc2ccccc2)C(=O)N[C@@H](C(C)C)C(=O)N1)C(=O)N[C@@H](C)C(=O)NCC(=O)NCC(=O)N1CCC[C@H]1C(=O)N[C@@H](CO)C(=O)N[C@@H](CO)C(=O)NCC(=O)N[C@@H](C)C(=O)N1CCC[C@H]1C(=O)N1CCC[C@H]1C(=O)N1CCC[C@H]1C(=O)N[C@@H](CO)C(N)=O [6Y, 271, C(17-24) - C20L5A, YAibEGT-YTSDY-SIYLD-KXAAAib-EFVXW-LIAGG-PSSGA-PPPS-NH2 (where each X is C)] (H-Y[Aib]EGTYTSDYSIYLDKCAA[Aib]EFVCWLIAGGPSSGAPPPS-NH2; linker 17-24 via X2)	–	–	–	EC50 (human GLP-1R; unnumbered table (Table 10), average of runs, read-out: GLP1R (nM) [EC50] average): 0.06 nM; EC50 (human GLP-1R; unnumbered table (Table 10), run 02/19, read-out: GLP1R (nM) [EC50] 02/19): 0.05 nM; EC50 (human GLP-1R; unnumbered table (Table 10), run 3/25, read-out: GLP1R (nM) [EC50] 3/25): 0.07 nM; EC50 (human GLP-1R; unnumbered table (Table 10), run 03/26, read-out: GLP1R (nM) [EC50] 03/26): 0.06 nM
CC[C@H](C)[C@H](NC(=O)[C@H](CO)NC(=O)[C@H](Cc1ccc(O)cc1)NC(=O)[C@H](CC(=O)O)NC(=O)[C@H](CO)NC(=O)[C@@H](NC(=O)[C@H](Cc1ccccc1)NC(=O)[C@@H](NC(=O)CNC(=O)[C@H](CCC(=O)O)NC(=O)C(C)(C)NC(=O)[C@@H](N)Cc1ccc(O)cc1)[C@@H](C)O)[C@@H](C)O)C(=O)N[C@@H](Cc1ccc(O)cc1)C(=O)N[C@H]1CSCC(=O)NCCN(C(=O)CCC(=O)NCCOCCOCCC(=O)NCCOCCOCCC(=O)NCCCC[C@H](NC(=O)CCCCCCCCCCCCCCCCC(=O)O)C(=O)O)CCNC(=O)CSC[C@@H](C(=O)N[C@@H](Cc2ccccc2)C(=O)N[C@H](C(=O)N[C@@H](CC(N)=O)C(=O)N[C@@H](Cc2c[nH]c3ccccc23)C(=O)N[C@@H](CC(C)C)C(=O)N[C@@H](CC(C)C)C(=O)N[C@@H](C)C(=O)NCC(=O)NCC(=O)N2CCC[C@H]2C(=O)N[C@@H](CO)C(=O)N[C@@H](CO)C(=O)NCC(=O)N[C@@H](C)C(=O)N2CCC[C@H]2C(=O)N2CCC[C@H]2C(=O)N2CCC[C@H]2C(=O)N[C@@H](CO)C(N)=O)C(C)C)NC(=O)C(C)(C)NC(=O)[C@H](C)NC(=O)[C@H](C)NC(=O)[C@H](CCC(N)=O)NC(=O)[C@H](CCCCN)NC(=O)[C@H](CC(=O)O)NC1=O [C(14-21) - L5A, YAibEGT-FTSDY-SIYXD-KQAAAib-XFVNW-LLAGG-PSSGA-PPPS-NH2 (where each X is C)]	0.03	–	0.03	–
CC[C@H](C)[C@H](NC(=O)[C@H](CC(C)C)NC(=O)[C@H](Cc1c[nH]c2ccccc12)NC(=O)[C@H](CC(N)=O)NC(=O)[C@@H](NC(=O)[C@H](Cc1ccccc1)NC(=O)[C@@H]1CSCC(=O)NCCN(C(=O)CCC(=O)NCCOCCOCCC(=O)NCCOCCOCCC(=O)NCCCC[C@H](NC(=O)CCCCCCCCCCCCCCCCC(=O)O)C(=O)O)CCNC(=O)CSC[C@H](NC(=O)[C@H](Cc2ccc(O)cc2)NC(=O)[C@@H](NC(=O)[C@H](CO)NC(=O)[C@H](Cc2ccc(O)cc2)NC(=O)[C@H](CC(=O)O)NC(=O)[C@H](CO)NC(=O)[C@@H](NC(=O)[C@H](Cc2ccccc2)NC(=O)[C@@H](NC(=O)CNC(=O)[C@H](CCC(=O)O)NC(=O)C(C)(C)NC(=O)[C@@H](N)Cc2ccc(O)cc2)[C@@H](C)O)[C@@H](C)O)[C@@H](C)CC)C(=O)N[C@@H](CC(=O)O)C(=O)N[C@@H](CCCCN)C(=O)N[C@@H](CCC(N)=O)C(=O)N[C@@H](C)C(=O)N[C@@H](C)C(=O)NC(C)(C)C(=O)N1)C(C)C)C(=O)N[C@@H](C)C(=O)NCC(=O)NCC(=O)N1CCC[C@H]1C(=O)N[C@@H](CO)C(=O)N[C@@H](CO)C(=O)NCC(=O)N[C@@H](C)C(=O)N1CCC[C@H]1C(=O)N1CCC[C@H]1C(=O)N1CCC[C@H]1C(=O)N[C@@H](CO)C(N)=O [27I, C(14-21) - L5A, YAibEGT-FTSDY-SIYXD-KQAAAib-XFVNW-LIAGG-PSSGA-PPPS-NH2 (where each X is C)]	0.03	0.04	–	–
CC[C@H](C)[C@H](NC(=O)[C@H](CC(C)C)NC(=O)[C@H](Cc1c[nH]c2ccccc12)NC(=O)[C@@H]1CSCC(=O)NCCN(C(=O)CCC(=O)NCCOCCOCCC(=O)NCCOCCOCCC(=O)NCCCC[C@H](NC(=O)CCCCCCCCCCCCCCCCCCC(=O)O)C(=O)O)CCNC(=O)CSC[C@H](NC(=O)[C@H](CCCCN)NC(=O)[C@H](CC(=O)O)NC(=O)[C@H](CC(C)C)NC(=O)[C@H](Cc2ccc(O)cc2)NC(=O)[C@@H](NC(=O)[C@H](CO)NC(=O)[C@H](Cc2ccc(O)cc2)NC(=O)[C@H](CC(=O)O)NC(=O)[C@H](CO)NC(=O)[C@@H](NC(=O)[C@H](Cc2ccccc2)NC(=O)[C@@H](NC(=O)CNC(=O)[C@H](CCC(=O)O)NC(=O)C(C)(C)NC(=O)[C@@H](N)Cc2ccc(O)cc2)[C@@H](C)O)[C@@H](C)O)[C@@H](C)CC)C(=O)N[C@@H](C)C(=O)N[C@@H](CCC(N)=O)C(=O)NC(C)(C)C(=O)N[C@@H](C)C(=O)N[C@@H](Cc2ccccc2)C(=O)N[C@@H](C(C)C)C(=O)N1)C(=O)N[C@@H](C)C(=O)N[C@@H](CCC(N)=O)C(=O)NCC(=O)N1CCC[C@H]1C(=O)N[C@@H](CO)C(=O)N[C@@H](CO)C(=O)NCC(=O)N[C@@H](C)C(=O)N1CCC[C@H]1C(=O)N1CCC[C@H]1C(=O)N1CCC[C@H]1C(=O)N[C@@H](CO)C(N)=O [19Q, 21A, 27I, 29Q, C(17-24) - C20L5A, YAibEGT-FTSDY-SIYLD-KXAQAib-AFVXW-LIAQG-PSSGA-PPPS-NH2 (where each X is C)]	–	–	0.02	–

Source: patent publication US20250320252A1 (The Scripps Research Institute, priority 2021, published 2025)
